The subject of data set [1] is Hepatotoxicity. The experiment in a line: Literature-mined compound from Fourches et al multi-species drug-induced liver injury (DILI) dataset, effect in non-rodents.
Data set [2] has as its system Hepatotoxicity. The experiment in a line: Literature-mined compound from Fourches et al multi-species drug-induced liver injury (DILI) dataset, effect in rodents. As to conditions: rodentia.
The test system of data set [3] is Hepatotoxicity. As to the kind of experiment: Literature-mined compound from Fourches et al multi-species drug-induced liver injury (DILI) dataset, effect in humans. As to conditions: human.

For `CC(C(=O)O)c1ccc(C(=O)c2cccs2)cc1` (stereo not given) [SUPROFEN], the Hepatotoxicity result is given as “no drug-induced liver injury reported” in the data set on Hepatotoxicity [1], “no drug-induced liver injury reported” in the data set with Hepatotoxicity [2] and “drug-induced liver injury reported” in the data set with Hepatotoxicity [3].
Regarding `Cc1ccc(C(=O)Nc2ccc(S(=O)(=O)O)c3cc(S(=O)(=O)O)cc(S(=O)(=O)O)c23)cc1NC(=O)c1cccc(NC(=O)Nc2cccc(C(=O)Nc3cc(C(=O)Nc4ccc(S(=O)(=O)O)c5cc(S(=O)(=O)O)cc(S(=O)(=O)O)c45)ccc3C)c2)c1` [SURAMIN], the Hepatotoxicity result with Hepatotoxicity [1], in the data set with Hepatotoxicity [2] and in the data set with Hepatotoxicity [3] was “drug-induced liver injury reported” throughout.
Take `Cl.Nc1c2c(nc3ccccc13)CCCC2` [TACRINE HYDROCHLORIDE]: the Hepatotoxicity entry in the data set with Hepatotoxicity [1] (Liver) is “no drug-induced liver injury reported”; in the data set on Hepatotoxicity [2] (Liver), “drug-induced liver injury reported”; in the data set on Hepatotoxicity [3] (Liver), “no drug-induced liver injury reported”.
Regarding `C=CC[C@@H]1/C=C(\C)C[C@H](C)C[C@H](OC)[C@H]2O[C@@](O)(C(=O)C(=O)N3CCCC[C@H]3C(=O)O[C@H](/C(C)=C/[C@@H]3CC[C@@H](O)[C@H](OC)C3)[C@H](C)[C@@H](O)CC1=O)[C@H](C)C[C@@H]2OC` [TACROLIMUS ANHYDROUS], the Hepatotoxicity result in the data set on Hepatotoxicity [1] is on record as “no drug-induced liver injury reported”; in the data set on Hepatotoxicity [2], “drug-induced liver injury reported”; in the data set on Hepatotoxicity [3], “drug-induced liver injury reported”.
Regarding `O=C(OC[C@H]1O[C@@H](OC(=O)c2cc(O)c(O)c(OC(=O)c3cc(O)c(O)c(O)c3)c2)[C@H](OC(=O)c2cc(O)c(O)c(OC(=O)c3cc(O)c(O)c(O)c3)c2)[C@@H](OC(=O)c2cc(O)c(O)c(OC(=O)c3cc(O)c(O)c(O)c3)c2)[C@@H]1OC(=O)c1cc(O)c(O)c(OC(=O)c2cc(O)c(O)c(O)c2)c1)c1cc(O)c(O)c(OC(=O)c2cc(O)c(O)c(O)c2)c1` [TANNIC ACID], the Hepatotoxicity entry in the data set with Hepatotoxicity [1] is listed as “drug-induced liver injury reported”; in the data set with Hepatotoxicity [2], “drug-induced liver injury reported”; with Hepatotoxicity [3], “no drug-induced liver injury reported”.
For the compound `O=c1[nH]c(=O)n(C2CCCO2)cc1F` (stereo not given) [TEGAFUR], the Hepatotoxicity entry was “no drug-induced liver injury reported” in the data set on Hepatotoxicity [1], “no drug-induced liver injury reported” with Hepatotoxicity [2] and “drug-induced liver injury reported” in the data set with Hepatotoxicity [3].
With `CC[C@H]1OC(=O)[C@H](C)C(=O)[C@H](C)[C@@H](O[C@@H]2O[C@H](C)C[C@H](N(C)C)[C@H]2O)[C@](C)(OC)C[C@@H](C)C(=O)[C@H](C)[C@H]2N(CCCCn3cnc(-c4cccnc4)c3)C(=O)O[C@]12C` [TELITHROMYCIN], the values for the Hepatotoxicity entry in the data set with Hepatotoxicity [1] (Liver), in the data set on Hepatotoxicity [2] (Liver) and in the data set on Hepatotoxicity [3] (Liver) were “no drug-induced liver injury reported”, “drug-induced liver injury reported” and “drug-induced liver injury reported”, respectively.
As to `Cn1nnc2c(C(N)=O)ncn2c1=O` [TEMOZOLOMIDE], the figures for the Hepatotoxicity result in the data set with Hepatotoxicity [1], with Hepatotoxicity [2] and with Hepatotoxicity [3] were “no drug-induced liver injury reported”, “no drug-induced liver injury reported” and “drug-induced liver injury reported”, respectively.
Consider `COc1cc([C@@H]2c3cc4c(cc3[C@@H](O[C@@H]3O[C@@H]5CO[C@@H](c6cccs6)O[C@H]5[C@H](O)[C@H]3O)[C@H]3COC(=O)[C@H]23)OCO4)cc(OC)c1O` [TENIPOSIDE], for which the results for the Hepatotoxicity entry with Hepatotoxicity [1], with Hepatotoxicity [2] and in the data set on Hepatotoxicity [3] were “no drug-induced liver injury reported”, “drug-induced liver injury reported” and “no drug-induced liver injury reported”, respectively.
With `C[C@H](Cn1cnc2c(N)ncnc21)OCP(=O)(O)O` [TENOFOVIR ANHYDROUS], the Hepatotoxicity result in the data set on Hepatotoxicity [1] was “no drug-induced liver injury reported”; with Hepatotoxicity [2] it was “no drug-induced liver injury reported”; in the data set with Hepatotoxicity [3] it was “drug-induced liver injury reported”.

For the origin of these results see ChEMBL document CHEMBL1697731, “Cheminformatics analysis of assertions mined from literature that describe drug-induced liver injury in different species” (Chem Res Toxicol, 2010).
